According to patent US20260167673A1, “NOVEL POLYPEPTIDE, POLYPEPTIDE DERIVATIVE AND USE THEREOF” (NANJING ANJI BIOTECHNOLOGY CO., LTD., priority 2023, published 2026):
Read-outs that look alike come from different tables or passages of the source. Marks after values point to notes of the source that are not given here. Where no end group is shown, it is not given here.

Tests used:
Assay type in all cases: cell-based
[1] = test system: human tongue squamous cell carcinoma CAL27 cells; conditions: CAL27, 80 μM, 48 h
Experimental: After incubation was continued for 48 h, add 100 μL of CCK8 solution to each well of the 96-well plate.

[2] = test system: human laryngeal epidermoid carcinoma cells HEp2; test: CCK8 proliferation inhibition, HEp2; conditions: HEp2, 50 μM, 48 h
Experimental: (§1) Incubation was continued for 4 h in a cell incubator, an absorbance was measured at 450 nm, and a proliferation inhibition was calculated. Data was presented as mean±SD, and GraphPad Prism 5.0 statistical software was used. A t-test was used for comparison between two groups, while One-way Anova (Dunnett) was used for comparison among a plurality of groups.

[3] = test system: human tongue squamous cell carcinoma cells CAL27; test: CCK8 proliferation inhibition, CAL27 (Example 5); conditions: CAL27, 50 μM, 48 h
Experimental: as §1

[4] = test system: human nasopharyngeal carcinoma cells CNE-2Z; test: CCK8 proliferation inhibition, CNE-2Z; conditions: 50 μM, 48 h
Experimental: as §1

[5] = test system: human esophageal cancer cells Eca-109; test: CCK8 proliferation inhibition, Eca-109; conditions: Eca-109, 50 μM, 48 h
Experimental: as §1

[6] = test system: human kidney cancer cells Ketr-3; test: CCK8 proliferation inhibition, Ketr-3; conditions: Ketr-3, 50 μM, 48 h
Experimental: as §1

[7] = test system: human endometrial cancer cells RL-952; test: CCK8 proliferation inhibition, RL-952; conditions: RL-952, 50 μM, 48 h
Experimental: as §1

[8] = test system: human ovarian cancer cells SKOV3; test: CCK8 proliferation inhibition, SKOV3 (Example 5); conditions: SKOV3, 50 μM, 48 h
Experimental: as §1

[9] = test system: human colon cancer cells SW480; test: CCK8 proliferation inhibition, SW480; conditions: SW480, 50 μM, 48 h
Experimental: as §1

[10] = test system: human gastric cancer cells MGC-803; test: CCK8 proliferation inhibition, MGC-803; conditions: MGC-803, 50 μM, 48 h
Experimental: as §1

[11] = test system: human bladder transitional cell carcinoma cells T24; test: CCK8 proliferation inhibition, T24; conditions: T24, 50 μM, 48 h
Experimental: as §1

[12] = test system: human pancreatic cancer cells ASPC-1; test: CCK8 proliferation inhibition, ASPC-1; conditions: ASPC-1, 50 μM, 48 h
Experimental: as §1

[13] = test system: human pancreatic cancer cells PANC-1; test: CCK8 proliferation inhibition, PANC-1; conditions: PANC-1, 50 μM, 48 h
Experimental: as §1

[14] = test system: human cholangiocarcinoma cells QBC939; test: CCK8 proliferation inhibition, QBC939; conditions: QBC939, 50 μM, 48 h
Experimental: as §1

[15] = test system: human malignant melanoma cells SK-mel-2; test: CCK8 proliferation inhibition, SK-mel-2; conditions: SK-mel-2, 50 μM, 48 h
Experimental: as §1

[16] = test system: human malignant melanoma cells A375; test: CCK8 proliferation inhibition, A375; conditions: A375, 50 μM, 48 h
Experimental: as §1

[17] = test system: human osteosarcoma cells MG63; test: CCK8 proliferation inhibition, MG63; conditions: MG63, 50 μM, 48 h
Experimental: as §1

[18] = test system: human fibrosarcoma cells HT-1080; test: CCK8 proliferation inhibition, HT-1080; conditions: HT-1080, 50 μM, 48 h
Experimental: as §1

[19] = test system: human multiple myeloma cells LP-1; test: CCK8 proliferation inhibition, LP-1; conditions: LP-1, 50 μM, 48 h
Experimental: as §1

[20] = test system: human peripheral blood B lymphocytes RPMI 8226 in multiple myeloma; test: CCK8 proliferation inhibition, RPMI 8226; conditions: RPMI 8226, 50 μM, 48 h
Experimental: as §1

[21] = test system: human histiocytic lymphoma cells U937; test: CCK8 proliferation inhibition, U937; conditions: U937, 50 μM, 48 h
Experimental: as §1

[22] = test system: human chronic myeloid leukemia cells K562; test: CCK8 proliferation inhibition, K562; conditions: K562, 50 μM, 48 h
Experimental: as §1

[23] = test system: human promyelocytic leukemia cells HL60; test: CCK8 proliferation inhibition, HL60; conditions: HL60, 50 μM, 48 h
Experimental: as §1

[24] = test system: human melanoma A375 cells; test: Transwell metastasis inhibition, A375; conditions: 48 h
Experimental: (§2) Melanoma, cervical cancer, ovarian cancer, liver cancer, and lung cancer cells were seeded into transwell chambers, with 100 μL per well. Different doses of the HMMW micropeptide and the novel polypeptide HMMW15-51 were added to each chamber as a treatment group, while no drug was added to a blank group. Then, 0.6 mL of a complete culture medium containing 10% FBS was added to the lower chambers of the transwell to stimulate cell metastasis, and the cells were cultured at 5% CO2 and 37° C. for 48 h. The culture solution was discarded from the wells. The cells were fixed with methanol at room temperature for 30 min, stained with 0.1% crystal violet at room temperature for 10 min, and rinsed with clean water. The upper layer nonmetastatic cells were wiped off with a cotton swab. The cells were observed under a microscope, and four fields of view were selected to take photos and count the cells. A metastasis inhibition (MI) was calculated according to a formula: […]
(§3) where Ntest represents the number of cell metastases in the treatment group, and Ncontrol represents the number of cell metastases in the blank control group.
(§4) Data was presented as mean±SD, and GraphPad Prism 5.0 statistical software was used.

[25] = test system: human cervical cancer Hela cells; test: Transwell metastasis inhibition, Hela; conditions: 50 μmol/L, 48 h
Experimental: as §2, §3, §4

## MERAGVPGFSPRRSSVEAKMQSTSCSVRKSSTVTAWPAVVLLLSWGQRRGG [HMMW]
[1]; Table 1, deletion mutants
  OD: 0.260 ± 0.098
[1]; Table 2, truncated fragments
  OD: 0.351 ± 0.078
[2]
  Inhibition (%): 42.416 ± 2.236 %
  OD: 0.504 ± 0.020
[3]
  Inhibition (%): 67.115 ± 5.457 %
  OD: 0.383 ± 0.064
[4]
  Inhibition (%): 50.952 ± 4.312 %
  OD: 0.472 ± 0.042
[5]
  Inhibition (%): 63.071 ± 2.982 %
  OD: 0.350 ± 0.028
[6]
  Inhibition (%): 48.708 ± 4.852 %
  OD: 0.476 ± 0.045
[7]
  Inhibition (%): 50.988 ± 3.897 %
  OD: 0.422 ± 0.034
[8]
  Inhibition (%): 52.644 ± 4.018 %
  OD: 0.466 ± 0.040
[9]
  Inhibition (%): 49.114 ± 2.626 %
  OD: 0.479 ± 0.025
[10]
  Inhibition (%): 41.094 ± 3.077 %
  OD: 0.675 ± 0.035
[11]
  Inhibition (%): 51.562 ± 4.780 %
  OD: 0.460 ± 0.045
[12]
  Inhibition (%): 51.448 ± 4.377 %
  OD: 0.497 ± 0.045
[13]
  Inhibition (%): 50.273 ± 6.135 %
  OD: 0.424 ± 0.052
[14]
  Inhibition (%): 49.490 ± 2.138 %
  OD: 0.429 ± 0.018
[15]
  Inhibition (%): 46.311 ± 4.884 %
  OD: 0.466 ± 0.042
[16]
  Inhibition (%): 49.572 ± 4.128 %
  OD: 0.491 ± 0.040
[17]
  Inhibition (%): 52.544 ± 2.562 %
  OD: 0.435 ± 0.024
[18]
  Inhibition (%): 53.092 ± 4.138 %
  OD: 0.432 ± 0.038
[19]
  Inhibition (%): 47.561 ± 4.259 %
  OD: 0.462 ± 0.038
[20]
  Inhibition (%): 52.930 ± 4.562 %
  OD: 0.578 ± 0.056
[21]
  Inhibition (%): 36.042 ± 2.134 %
  OD: 0.855 ± 0.029
[22]
  Inhibition (%): 51.933 ± 2.838 %
  OD: 0.618 ± 0.036
[23]
  Inhibition (%): 47.264 ± 5.692 %
  OD: 0.578 ± 0.062
[24]; A375, 50 μmol/L
  Number of cell metastases: 371 ± 13.00
[24]; A375 metastasis, 50 μmol/L
  Inhibition (%): 37.13*** %
[25]; Hela metastasis
  Inhibition (%): 88.80*** %
[25]; Hela
  Number of cell metastases: 115 ± 20.32
